# Laboratory results published in the supplement of paper PMC4858399.
# Where a name gives a salt, the structure may show the parent alone.
# Tests used:
# [1] = test system: Caenorhabditis elegans N2; assay: lowest effective concentration for larval growth inhibition (size below effect threshold); higher = less potent; conditions: exposure time 48 h
# Method in brief: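 Chemical exposure ran for 48 h at 20°C: 50 C. elegans N2 L1 larvae per 96-well in K-medium with killed bacteria, 1% DMSO and 0.5, 1, 5, 10, 50, 100 or 200 µM chemical. Extinction of each worm, read as size on the Biosort, was log-transformed and averaged by well. The lowest effective concentration is the first dose whose plate-adjusted mean size is below a fixed value and remains so at all higher doses; the value is 5.665.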
# [2] = test system: Caenorhabditis elegans N2; assay: mean nematode size ln(EXT) after 48 h, plate-adjusted (DMSO control set to 6) (ln(EXT), control-adjusted); higher = larger nematodes / less growth inhibition; conditions: exposure time 48 h
# Method in brief: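 In K-medium with killed OP50, 1% DMSO and 0.5–200 µM chemical, synchronised N2 L1 larvae of C. elegans (50 per well) grew for 48 h at 20°C. Extinction was read for every worm on the Biosort, with debris removed by a growth model. Natural-log values averaged per well gave mean size, which was corrected per plate by subtracting the vehicle control mean and adding 6.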
Compound,lowest effective concentration [1] [µM],mean nematode size ln(EXT) (ln) ([2]; 0.5 µM),mean nematode size ln(EXT) (ln) ([2]; 1 µM),mean nematode size ln(EXT) (ln) ([2]; 5 µM),mean nematode size ln(EXT) (ln) ([2]; 10 µM),mean nematode size ln(EXT) (ln) ([2]; 50 µM),mean nematode size ln(EXT) (ln) ([2]; 100 µM),mean nematode size ln(EXT) (ln) ([2]; 200 µM)
COCCOCCO [Diethylene glycol monomethyl ether],> 200,5.87,5.91,5.93,5.85,5.82,5.94,5.68
COC(=O)CSc1cc(/N=c2\sc(=O)n3n2CCCC3)c(F)cc1Cl [Fluthiacet-methyl],> 200,5.92,5.93,5.96,5.96,5.98,5.95,5.92
O=P(O)(O)CCCl [Ethephon],> 200,5.96,5.93,5.97,5.94,6.03,6.05,5.88
CCCCC(CC)C(=O)O (configuration not stated) [2-Ethylhexanoic acid],> 200,5.7,5.88,5.79,5.81,5.76,5.7,6.12
O=c1[nH]cnc2c1ncn2[C@H]1CC[C@@H](CO)O1 [Didanosine],> 200,5.88,5.86,5.85,5.84,5.89,5.96,5.76
COCC(=O)N(c1c(C)cccc1C)C(C)C(=O)OC (configuration not stated) [Metalaxyl],> 200,6.15,6.19,6.16,6,6.14,6.18,5.98
CN1CSC(=S)N(C)C1 [Dazomet],> 200,5.73,5.62,5.46,5.71,5.78,5.55,5.83
Cc1cn([C@H]2C=C[C@@H](CO)O2)c(=O)[nH]c1=O [Stavudine],> 200,5.47,5.53,5.6,5.67,5.69,5.7,5.93
"Cc1ccc([N+](=O)[O-])cc1C [1,2-Dimethyl-4-nitrobenzene]",> 200,5.84,5.96,5.89,5.8,5.86,5.8,5.81
CCCCN(CCCC)N=O [N-Nitrosodi-N-butylamine],> 200,6.12,6.07,5.93,5.97,5.99,6.08,5.95
Cc1ccc(N)cc1 [4-Methyl-benzeneamine],> 200,5.89,5.85,5.89,5.88,5.79,5.85,5.71
"O=C1OC(=O)C2C3C=CC(C3)C12 (configuration not stated) [4,7-Methanoisobenzofuran-1,3-dione, 3A,4,7,7A-tetrahydro-]",> 200,5.86,5.82,5.84,5.82,5.8,5.52,5.71
"OC(CCl)CCl [1,3-Dichloro-2-propanol]",> 200,5.88,5.83,5.8,5.82,5.8,5.48,5.88
CO[C@@H]1COCC[C@@H]1N[C@@H]1CC[C@@](C(=O)N2CCc3ncc(C(F)(F)F)cc3C2)(C(C)C)C1,> 200,5.89,5.88,5.95,5.95,5.93,5.86,5.84
"Nc1cccc(N)c1 [1,3-Benzenediamine]",> 200,5.8,5.84,5.87,5.89,5.87,6,5.78
O=C(O)C1=NN(c2ccc(S(=O)(=O)O)cc2)C(=O)C1N=Nc1ccc(S(=O)(=O)O)cc1 (configuration not stated) [Tartrazine],> 200,6.02,5.96,5.97,5.98,6.03,5.85,5.92
CCCCCCCCCC [Decane],> 200,5.95,5.8,5.91,5.8,5.87,5.83,5.75
CCCCOCCO [2-Butoxyethanol],> 200,5.93,5.98,5.92,6,6.01,5.84,5.81
Nc1cnn(-c2ccccc2)c(=O)c1Cl [Chloridazon],> 200,5.51,5.47,5.3,6.01,5.44,5.44,5.89
CC1(C)C(C=C(Cl)Cl)C1C(=O)OC(C#N)c1ccc(F)c(Oc2ccccc2)c1 (configuration not stated) [Cyfluthrin],> 200,6.09,6.69,6.12,6.22,6.18,6.44,5.7
"Cc1cccc(C)c1O [2,6-Dimethylphenol]",> 200,5.9,5.89,5.89,5.78,5.88,5.65,5.82
CCOC(=O)c1ccc(O)cc1 [Ethylparaben],> 200,5.98,5.82,5.93,5.81,5.84,5.84,5.74
CC(C)CC(C)O (configuration not stated) [4-Methyl-2-pentanol],> 200,6.05,5.96,6.02,5.89,5.97,5.96,5.79
CCCCCCCC(=O)O [Octanoic acid],> 200,6,5.81,5.92,5.8,5.89,5.84,5.78
CCOCCOCCO [Diethylene glycol monoethyl ether],> 200,6.02,6.03,6.07,6.05,6.03,6.06,5.76
CC1=C(C(=O)Nc2ccccc2)SCCO1 [Carboxin],> 200,5.77,5.9,5.83,5.85,5.84,5.62,5.9
CCOC(=O)COc1cc(-c2nn(C)c(OC(F)F)c2Cl)c(F)cc1Cl [Pyraflufen-ethyl],> 200,5.75,5.74,5.74,5.85,5.98,6.02,5.88

Compound,lowest effective concentration [1] [µM],mean nematode size ln(EXT) (ln) ([2]; 0.5 µM),mean nematode size ln(EXT) (ln) ([2]; 1 µM),mean nematode size ln(EXT) (ln) ([2]; 5 µM),mean nematode size ln(EXT) (ln) ([2]; 10 µM),mean nematode size ln(EXT) (ln) ([2]; 50 µM),mean nematode size ln(EXT) (ln) ([2]; 100 µM),mean nematode size ln(EXT) (ln) ([2]; 200 µM)
CN/C(=N\[N+](=O)[O-])NCc1cnc(Cl)s1 [Clothianidin],> 200,5.89,5.99,5.78,6.1,6.05,6.02,5.96
CC(=O)Nc1ccc(O)cc1 [Acetaminophen],> 200,6.04,6.05,6.04,6.12,6.09,6.04,5.74
CCNc1ccccc1 [N-Ethyl aniline],> 200,5.68,5.67,5.68,5.67,5.52,5.56,5.67
O=C1CCC(N2C(=O)c3ccccc3C2=O)C(=O)N1 (configuration not stated) [Thalidomide],> 200,5.98,5.95,5.98,5.97,5.97,5.85,5.97
"COc1cc(-c2ccc(N)c(OC)c2)ccc1N [3,3'-Dimethoxybenzidine dihydrochloride]",> 200,5.89,5.91,5.9,5.65,5.72,5.41,6.4
"O=S1(=O)CCCO1 [1,3-Propane sultone]",> 200,5.83,5.87,5.85,5.78,5.84,5.91,5.76
Cc1ccc([N+](=O)[O-])cc1 [4-Nitrotoluene],> 200,5.99,5.92,5.98,5.85,5.94,5.95,5.77
COc1ccc2c(c1)c(CC(=O)O)c(C)n2C(=O)c1ccc(Cl)cc1 [Indomethacin],> 200,6.03,5.93,5.95,5.96,5.93,5.93,5.83
C=CCc1ccc(O)c(OC)c1 [Eugenol],> 200,5.89,5.9,5.93,5.98,5.91,5.87,5.77
CCN(CC)C(=O)c1cccc(C)c1 [Diethyltoluamide],> 200,5.86,5.86,5.91,6.14,6,5.91,5.85
CSC(C)(C)/C=N/O [Aldicarb oxime],> 200,5.88,5.88,5.75,5.85,5.94,5.94,5.77
CC(C)(O)c1ccc(CNC(=O)c2cccnc2Oc2ccc(F)cc2)cc1,> 200,5.74,6.01,5.84,5.9,5.91,5.9,5.72
CCCc1cc(=O)[nH]c(=S)[nH]1 [6-Propyl-2-thiouracil],> 200,5.8,5.84,5.82,5.91,5.8,5.88,5.74
Cc1cc(Cl)ccc1OCC(=O)O [MCPA],> 200,5.99,6.05,6.18,6.02,6.09,6.02,5.9
CC(C)CCCCCCOC(=O)CCCCC(=O)OCCCCCCC(C)C [Diisononyl adipate],> 200,5.94,5.98,5.93,5.92,5.87,5.91,5.69
CC(C)C1(C)N=C(c2ncccc2C(=O)O)NC1=O (configuration not stated) [Imazapyr],> 200,5.84,5.98,6.01,5.97,5.9,5.84,5.77
Cc1cccc(N)c1 [3-Methylaniline],> 200,5.82,5.86,5.86,5.88,5.91,5.99,5.79
O=C(O)C1(C(=O)Nc2ccc(Cl)cc2Cl)CC1 [Cyclanilide],> 200,6.16,6.05,6.18,6.27,6.34,6.38,5.9
CCc1cnc(C2=NC(C)(C(C)C)C(=O)N2)c(C(=O)O)c1 (configuration not stated) [Imazethapyr],> 200,5.99,5.93,6.06,6.15,6.12,6.24,6.05
"CC(C)=CCC/C(C)=C/C=O [3,7-Dimethyl-2,6-octadienal]",> 200,5.72,5.74,5.77,5.84,5.78,5.88,5.73
O=C(O)c1ccc2c(c1)nc(C(=O)NC1CCN(C3CC3)CC1)n2Cc1cc(-c2ccc(Cl)s2)on1,> 200,5.76,5.81,5.71,5.87,5.82,5.69,5.86
CCOCCOC(C)=O [2-Ethoxyethyl acetate],> 200,6.11,6.11,6.07,6.08,6.07,6.04,6.57
"CCN(CC)CCO [N,N-Diethylethanolamine]",> 200,5.86,5.89,5.91,5.81,5.83,5.76,5.78
C[C@]12C=CC(=O)C=C1CC[C@H]1[C@@H]3C[C@@H](O)[C@](O)(C(=O)CO)[C@@]3(C)C[C@H](O)[C@@]12F [Triamcinolone],> 200,5.9,5.86,5.87,5.87,5.92,5.86,5.79
Cc1nc(N(C)C)nc(OC(=O)N(C)C)c1C [Pirimicarb],> 200,5.83,5.88,6.03,5.99,6.32,5.99,5.96
Nc1nc(N)nc(NC2CC2)n1 [Cyromazine],> 200,5.45,5.67,5.56,5.57,5.42,6.14,5.94
C[C@@]1(c2ccc(Oc3ccccc3)cc2)OC(=O)N(Nc2ccccc2)C1=O (racemic) [Famoxadone],> 200,5.8,5.77,5.7,5.8,5.75,5.83,5.67
